Source: PubChem BioAssay (NCI)
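GI50 = concentration required for 50% inhibition of growth. TGI: total growth inhibition.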

What was measured:
Assay in all cases: NCI anticancer screen, dose series, 384-well format
K-562 leukemia = test system: K-562 leukemia
M14 melanoma = test system: M14 melanoma
OVCAR-3 ovarian = test system: OVCAR-3 ovarian
NCI/ADR-RES ovarian = test system: NCI/ADR-RES ovarian
DU-145 prostate = test system: DU-145 prostate
PC-3 prostate = test system: PC-3 prostate
786-0 renal = test system: 786-0 renal
COLO 205 colon = test system: COLO 205 colon
TK-10 renal = test system: TK-10 renal
MALME-3M melanoma = test system: MALME-3M melanoma
HL-60(TB) leukemia = test system: HL-60(TB) leukemia
HS 578T breast = test system: HS 578T breast
MDA-MB-231 breast = test system: MDA-MB-231 breast

Nc1nc2cc(-c3ccc4ncc(C(=O)N5CCOCC5)n4c3)ccc2o1
GI50 (K-562 leukemia): > 86 µM | TGI (K-562 leukemia): > 100 µM | GI50 (M14 melanoma): 11.6 µM | TGI (M14 melanoma): > 100 µM | GI50 (OVCAR-3 ovarian): 7.73 µM | TGI (OVCAR-3 ovarian): > 100 µM | GI50 (NCI/ADR-RES ovarian): > 100 µM | TGI (NCI/ADR-RES ovarian): > 100 µM | GI50 (DU-145 prostate): 21.3 µM | TGI (DU-145 prostate): > 100 µM | GI50 (PC-3 prostate): 5.45 µM | TGI (PC-3 prostate): > 100 µM | GI50 ([…]-0 renal): > 75.6 µM | TGI (786-0 renal): > 100 µM | GI50 (COLO 205 colon): 10.2 µM | TGI (COLO 205 colon): > 100 µM | GI50 (TK-10 renal): 5.17 µM | TGI (TK-10 renal): 53.7 µM | GI50 (MALME-3M melanoma): 2.78 µM | TGI (MALME-3M melanoma): > 68.5 µM | GI50 (HL-60(TB) leukemia): 5.36 µM | TGI (HL-60(TB) leukemia): > 78 µM | GI50 (HS 578T breast): 6.07 µM | TGI (HS 578T breast): 66.2 µM | GI50 (MDA-MB-231 breast): 9.02 µM | TGI (MDA-MB-231 breast): > 100 µM
